Laboratory results reported in PubChem BioAssay (NCI).
“And” between values parts separate entries of the source, which are not always exact repeats. Identical values can stand only once.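 Five concentrations, 48 hours, 96-well plates. GI50 = concentration required for 50% inhibition of growth. TGI: concentration producing complete growth inhibition.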

Experiments:
Test in all cases: NCI-60 cell line screen, 48 h
SF-268 CNS = system: SF-268 CNS
RXF 393 renal = system: RXF 393 renal
UACC-62 melanoma = system: UACC-62 melanoma
HCC-2998 colon = system: HCC-2998 colon
OVCAR-3 ovarian = system: OVCAR-3 ovarian
K-562 leukemia = system: K-562 leukemia
HCT-15 colon = system: HCT-15 colon
UACC-257 melanoma = system: UACC-257 melanoma
786-0 renal = system: 786-0 renal
NCI-H522 lung = system: NCI-H522 lung

Row | Compound | GI50 (SF-268 CNS) | TGI (SF-268 CNS) | GI50 (RXF 393 renal) | TGI (RXF 393 renal) | GI50 (UACC-62 melanoma) | TGI (UACC-62 melanoma) | GI50 (HCC-2998 colon) | TGI (HCC-2998 colon) | GI50 (OVCAR-3 ovarian) | TGI (OVCAR-3 ovarian) | GI50 (K-562 leukemia) | TGI (K-562 leukemia) | GI50 (HCT-15 colon) | TGI (HCT-15 colon) | GI50 (UACC-257 melanoma) | TGI (UACC-257 melanoma) | GI50 (786-0 renal) [µM] | TGI (786-0 renal) [µM] | GI50 (NCI-H522 lung) | TGI (NCI-H522 lung)
1 | CC[C@]12C=CCN3CC[C@@]4(c5ccc(OC)cc5N(C)[C@H]4[C@@](O)(C(=O)OC)[C@@H]1OC(=O)CCC[P+](c1ccccc1)(c1ccccc1)c1ccccc1)[C@@H]32 | 0.933 µM and 0.455 µM | 6.84 µM and 2.65 µM | 0.736 µM and 1.53 µM | 2.94 µM and 4.34 µM | 0.3 µM and 0.379 µM | 0.964 µM and 1.42 µM | 0.449 µM and 0.425 µM | 2.67 µM and 1.64 µM | 0.291 µM and 0.447 µM | 2.97 µM and 1.99 µM | 0.561 µM and 0.421 µM | 8.23 µM and 5.98 µM | 8.69 µM and 14.2 µM | 20.7 µM and 28.8 µM | 0.364 µM and 0.275 µM | 1.82 µM and 0.94 µM | 2.13 | 8.03 | 0.247 µM and 0.342 µM | 5.37 µM and 1.41 µM
2 | CCN(CC)CCOc1ccc(/C=C(\C#N)c2ccc(OCCN(CC)CC)cc2)cc1 |  | 53.9 µM |  | 27.9 µM |  | 31.9 µM |  | 32.3 µM |  | > 63.1 µM |  | 23.5 µM |  | 30.8 µM |  | 31.3 µM |  | 25.5 |  | 24.9 µM
3 | Cc1ccccc1N1C(=O)/C(=C/c2ccc(N(CCC#N)CCC#N)cc2)N=C1c1cc([N+](=O)[O-])ccc1Cl |  | > 100 µM |  |  |  | > 100 µM |  | > 100 µM |  | > 100 µM |  | > 100 µM |  | > 100 µM |  | > 100 µM |  | > 100 |  | > 100 µM
4 | Cn1c(=O)c2c(nc(Nc3cc(=O)[nH]c(=O)[nH]3)n2Cc2ccccc2)n(C)c1=O | > 100 µM | > 100 µM | > 100 µM | > 100 µM | 65.8 µM | > 100 µM | > 100 µM | > 100 µM | > 100 µM | > 100 µM | 82.5 µM | > 100 µM | > 100 µM | > 100 µM | > 100 µM | > 100 µM | > 100 | > 100 | > 100 µM | > 100 µM
5 | COc1cc(C(=O)c2cc(C)c3[nH]c4ccc(Cl)cc4c3c2C)cc(OC)c1OC | 0.182 µM | 16.2 µM |  |  | 0.0376 µM | 8.4 µM | 0.0548 µM | 5.29 µM | 0.0329 µM | 7.16 µM | 0.035 µM | > 100 µM | 0.0355 µM | 4.25 µM | 4.28 µM | 32.3 µM | 0.0634 | 6.19 | 0.0291 µM | 1.95 µM
6 | CC(C)(C)C(=O)OCOP(=O)(OCOC(=O)C(C)(C)C)C1CCCN(O)C1=O (configuration not stated) | 0.441 µM | 20.2 µM | 0.36 µM | 1.74 µM | 0.318 µM | 2.1 µM | 0.446 µM | 5.59 µM | 0.559 µM | > 100 µM | 0.393 µM | > 100 µM | 0.675 µM | 14.8 µM | 1.19 µM | 13.5 µM | 0.35 | 18.1 | 0.308 µM | 1.83 µM
7 | O=C1CCCC/C(=C/c2ccccc2)N1 |  | > 100 µM |  | > 100 µM |  | > 100 µM |  | > 100 µM |  | > 100 µM |  | > 100 µM |  | > 100 µM |  | > 100 µM |  | > 100 |  | > 100 µM
